From publication PMC10882491 (Chemical Science, 2024) come the findings set out here.

The target in one test is T1, AURKA (Homo sapiens, UniProt O14965).
T1 sequence (O14965 1-403): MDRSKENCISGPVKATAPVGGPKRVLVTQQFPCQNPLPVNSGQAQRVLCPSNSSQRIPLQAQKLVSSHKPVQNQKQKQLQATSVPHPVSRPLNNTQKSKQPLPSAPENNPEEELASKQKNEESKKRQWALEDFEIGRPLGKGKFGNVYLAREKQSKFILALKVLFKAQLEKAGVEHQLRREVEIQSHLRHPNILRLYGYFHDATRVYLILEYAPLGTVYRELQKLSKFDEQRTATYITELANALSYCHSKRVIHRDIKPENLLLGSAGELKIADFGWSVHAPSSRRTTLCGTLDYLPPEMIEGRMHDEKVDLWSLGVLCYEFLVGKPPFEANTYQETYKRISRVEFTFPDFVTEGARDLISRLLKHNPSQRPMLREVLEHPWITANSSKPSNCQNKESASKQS
The experiment in a line: single-temperature TPP with PRM-MS in K562 lysate. Format: cell-based.

The target in a further test is T2, GRK2 (Homo sapiens, UniProt P25098).
T2 sequence (P25098 1-689): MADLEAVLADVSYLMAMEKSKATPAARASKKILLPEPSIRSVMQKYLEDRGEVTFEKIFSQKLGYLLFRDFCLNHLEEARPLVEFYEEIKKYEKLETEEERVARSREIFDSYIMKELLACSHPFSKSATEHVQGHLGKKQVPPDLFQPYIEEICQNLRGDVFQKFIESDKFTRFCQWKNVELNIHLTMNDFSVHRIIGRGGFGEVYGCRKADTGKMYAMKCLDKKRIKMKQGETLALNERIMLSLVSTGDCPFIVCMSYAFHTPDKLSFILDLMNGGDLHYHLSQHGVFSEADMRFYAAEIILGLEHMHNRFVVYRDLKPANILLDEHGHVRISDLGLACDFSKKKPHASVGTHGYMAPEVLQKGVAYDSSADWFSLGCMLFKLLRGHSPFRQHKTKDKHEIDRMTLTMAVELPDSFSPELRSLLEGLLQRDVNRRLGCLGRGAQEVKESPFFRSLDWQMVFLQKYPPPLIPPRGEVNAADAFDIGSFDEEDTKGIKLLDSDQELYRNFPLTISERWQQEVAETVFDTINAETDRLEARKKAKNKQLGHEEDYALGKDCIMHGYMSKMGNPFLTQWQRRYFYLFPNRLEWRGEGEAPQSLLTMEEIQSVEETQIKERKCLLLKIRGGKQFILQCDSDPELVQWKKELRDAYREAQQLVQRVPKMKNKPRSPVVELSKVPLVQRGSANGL
The experiment in a line: western blot CETSA, isothermal dose-response at […] °C. Format: biochemical. On the technique in general: Immunoblotting shows a protein as a band on a membrane.

The next test has as its target PIP4K2C (Homo sapiens, UniProt Q8TBX8). Nature of the test: NanoBRET target engagement in living HEK293 cells. The test is classed as cell-based. In general terms: Bioluminescence resonance energy transfer reports proximity on the nanometre scale.

Structures are written as SMILES.

PIP4K2C, sequence (Q8TBX8 2-421): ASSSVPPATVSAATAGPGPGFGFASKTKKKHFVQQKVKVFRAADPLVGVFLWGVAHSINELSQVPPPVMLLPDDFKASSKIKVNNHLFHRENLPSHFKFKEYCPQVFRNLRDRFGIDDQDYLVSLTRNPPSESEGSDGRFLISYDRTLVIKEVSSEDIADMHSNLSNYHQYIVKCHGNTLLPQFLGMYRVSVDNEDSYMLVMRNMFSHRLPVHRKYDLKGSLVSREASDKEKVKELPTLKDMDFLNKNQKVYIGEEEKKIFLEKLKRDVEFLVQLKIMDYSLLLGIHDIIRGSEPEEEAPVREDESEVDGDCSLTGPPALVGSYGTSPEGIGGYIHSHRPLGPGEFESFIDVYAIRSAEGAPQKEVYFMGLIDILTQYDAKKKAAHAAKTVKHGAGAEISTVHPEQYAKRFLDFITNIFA

For the molecule `COc1cc(Nc2ncc3c(n2)-c2ccc(Cl)cc2C(c2c(F)cccc2OC)=NC3)ccc1C(=O)O` [alisertib], the “single-temperature TPP with PRM-MS in K562 lysate” value at AURKA was “PRM data confirmed that all of these targets exhibit significantly higher abundance in the drug treatment groups”. In the case of `Cc1nc2ccc(CN(C)c3ccc(C(=O)N[C@@H](CCC(=O)O)C(=O)O)s3)cc2c(=O)[nH]1` [raltitrexed], on GRK2, the IC50 (as a rule, the midpoint of a concentration-inhibition curve) came out at 6.7 µM. With `NC(=O)c1nc(Nc2ccccc2)sc1NC(=O)C1CCCCC1` [UNC3230], the IC50 against PIP4K2C was 0.25 µM.
